From US9527807B2, “Sulfonamide derivative and use thereof” (Takeda Pharmaceutical Company Limited, priority 2011, dated 2016) come the findings set out here.

The target of the test is T1, AMPA receptor (human GluR1 flip/stargazin expressed in CHO-K1 cells) (Homo sapiens, UniProt P42261).
T1 construct: expressed in transfected cells; host or cells: CHO-K1
The experiment in a line: AMPA receptor function enhancing activity using calcium influx as index. The following applies: change in fluorescence level in 3 min, 100% = 3 mM glutamic acid + 300 μM cyclothiazide, 0% = 3 mM glutamic acid only. It counts as cell-based. The source says: Human GluR1 flip cDNA was amplified by PCR using forward primer […] (SEQ ID NO: 1) and reverse primer […] (SEQ ID NO: 2) artificially synthesized using human brain-derived cDNA (BD Bio science) as a template. The amplified product was digested with restriction enzymes EcoRI, NotI (TAKARA SHUZO CO. LTD.), and incorporated into the same site of pcDNA3.1(+) (Invitrogen) to construct pcDNA3.1(+)/human GluR1 flip gene. Human stargazin cDNA was amplified by PCR using forward primer […] (SEQ ID NO: 3) and reverse primer. […] (SEQ ID NO: 4) artificially synthesized using human hippocampus cDNA as a template. The amplified product was digested with restriction enzymes XhoI, BamHI (TAKARA SHUZO CO. LTD.), and incorporated into the same site of pcDNA3.1(−) (Invitrogen) to construct pcDNA3.1 Zeo(−)/human stargazin gene.
(2) Construction of GluR1 Flip/Stargazin Expressing Cell
CHO-K1 cells passaged in a culture medium (Ham's F12 medium (Invitrogen) added with 10% inactivated fetal bovine serum (Morgate) and penicillin, streptomycin (Invitrogen)) were detached with 0.05% trypsin, 0.53 mM EDTA (Invitrogen) diluted with D-PBS(−). The detached cells were suspended in a culture medium, and recovered by a centrifugation operation at 1,000 rpm. The recovered cells were suspended again in D-PBS(−), and added to a 0.4 cm electroporation cuvette (BioRad). pcDNA3.1(+)/human GluR1 flip gene (5 μg) and pcDNA3.1 Zeo(−)/human stargazin gene (15 μg) were added, and the mixture was introduced into CHO-K1 cells using Gene Pulser II (BioRad) under the conditions of 950 μFd, […]. The introduced cells were cultured overnight in a culture medium and, the next day, plated in a 96 well plate at 250 cells/well using a selection medium (culture medium added with Zeocin (Invitrogen) to 250 μg/mL). Clones showing drug resistance were selected, and GluR1 flip/stargazin expressing clones were selected by an assay method using calcium influx as an index as shown below.
(3) Measurement Method of AMPA Receptor Function Enhancing Activity of Compound Using Calcium Influx as Index
CHO-K1/GluR1 flip/stargazin expressing cells were plated on a 384 well black transparent bottom plate (FMAT4307723) at 0.5×10^4 cells/well, and cultured in a 37° C., CO2 incubator (SANYO Electric Co., Ltd.) for 2 days. The medium in the cell plate was removed, and a calcium indicator (Calcium 4 Assay Kit, Molecular. Devices) containing 1.25 mM probenecid (Invitrogen) was added at 25 μL/well and the well was left standing in 37° C., CO2 incubator for 1 hr. The cell plate was set in FLITRtetra (Molecular Devices), a mixture (12.5 μL) of 9 mM glutamic acid diluted with assay buffer B (HBSS (Invitrogen), 0.1% BSA, 10 mM HEPES) and a test compound was added, and the amount of change in fluorescence level in 3 min was measured. In the definition here, the amount of change in fluorescence level of well added with glutamic acid at final concentration 3 mM and 300 μM cyclothiazide (TOCRIS) is 100%, the amount of change in fluorescence level of well added only with glutamic acid at final concentration 3 mM is 0%, and the compound activity was calculated according to the following formula. activity (%)=(X−C)/(T−C)×100 T: amount of change in fluorescence level of well added with glutamic acid at final concentration 3 mM and 300 μM cyclothiazide C: amount of change in fluorescence level of well added only with glutamic acid at final concentration 3 mM X: amount of change in fluorescence level of well added with to test compound

T1 sequence (P42261 19-906 isoform P42261-2 limits assumed): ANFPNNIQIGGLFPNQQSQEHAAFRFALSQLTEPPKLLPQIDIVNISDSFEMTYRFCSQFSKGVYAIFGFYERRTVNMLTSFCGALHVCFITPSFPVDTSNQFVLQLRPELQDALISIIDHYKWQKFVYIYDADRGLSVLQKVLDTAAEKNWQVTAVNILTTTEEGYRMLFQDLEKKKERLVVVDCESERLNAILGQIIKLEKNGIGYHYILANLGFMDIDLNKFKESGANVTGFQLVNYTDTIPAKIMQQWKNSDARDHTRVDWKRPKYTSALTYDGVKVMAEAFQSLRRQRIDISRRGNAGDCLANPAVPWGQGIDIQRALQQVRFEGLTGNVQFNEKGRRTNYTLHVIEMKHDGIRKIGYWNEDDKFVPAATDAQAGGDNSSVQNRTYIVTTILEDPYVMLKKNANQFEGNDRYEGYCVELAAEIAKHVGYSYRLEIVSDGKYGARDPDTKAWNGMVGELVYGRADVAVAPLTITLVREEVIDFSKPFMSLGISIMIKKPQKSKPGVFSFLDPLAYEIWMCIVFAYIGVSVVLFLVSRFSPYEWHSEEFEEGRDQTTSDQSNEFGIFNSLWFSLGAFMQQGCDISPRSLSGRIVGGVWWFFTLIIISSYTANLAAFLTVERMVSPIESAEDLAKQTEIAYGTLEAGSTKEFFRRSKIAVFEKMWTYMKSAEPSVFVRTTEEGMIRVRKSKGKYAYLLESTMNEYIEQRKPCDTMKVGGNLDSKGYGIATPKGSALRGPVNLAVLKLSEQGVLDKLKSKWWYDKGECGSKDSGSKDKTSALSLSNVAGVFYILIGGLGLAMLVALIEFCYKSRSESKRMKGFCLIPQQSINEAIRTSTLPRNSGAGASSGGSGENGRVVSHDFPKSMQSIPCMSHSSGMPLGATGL
T1 sequence (Q9Y698 whole entry partner): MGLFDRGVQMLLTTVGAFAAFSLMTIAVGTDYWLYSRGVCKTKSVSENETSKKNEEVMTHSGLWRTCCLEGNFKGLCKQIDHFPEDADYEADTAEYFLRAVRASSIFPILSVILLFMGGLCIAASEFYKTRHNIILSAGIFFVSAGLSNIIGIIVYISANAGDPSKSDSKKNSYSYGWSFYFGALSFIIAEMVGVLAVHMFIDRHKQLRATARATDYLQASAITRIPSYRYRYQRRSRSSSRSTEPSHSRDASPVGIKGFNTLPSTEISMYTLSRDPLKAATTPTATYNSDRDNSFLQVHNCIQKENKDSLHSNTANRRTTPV

Consider `CCS(=O)(=O)N[C@H]1CCOC[C@@H]1COc1ccc(-c2cc(C)on2)c(F)c1` [Example 248, N-[(3R,4S)-3-{[3-fluoro-4-(5-methylisoxazol-3-yl)phenoxy]methyl}tetrahydro-2H-pyran-4-yl]ethanesulfonamide], for which the “activity (%)” value is listed as 87%.
For `O=S(=O)(N[C@H]1CCOC[C@@H]1COc1ccc(-c2ccc(F)cn2)c(F)c1)C1CC1` (racemic) [Example 243, N-[(3RS,4SR)-3-{[3-fluoro-4-(5-fluoropyridin-2-yl)phenoxy]methyl}tetrahydro-2H-pyran-4-yl]cyclopropanesulfonamide], the “activity (%)” value is reported as 96%.
As to `CCS(=O)(=O)N[C@H]1CCCO[C@@H]1COc1ccc(-c2ncc(C)s2)cc1` (racemic) [Example 181, 1,5-anhydro-2,3,4-trideoxy-4-[(ethylsulfonyl)amino]-6-O-[4-(5-methyl-1,3-thiazol-2-yl)phenyl]-DL-erythro-hexitol], the “activity (%)” value is 77%.
With `CS(=O)(=O)N[C@H]1CCCO[C@@H]1COc1ccc(C2CC2)cc1` (racemic) [Example 5, 1,5-anhydro-6-O-(4-cyclopropylphenyl)-2,3,4-trideoxy-4-[(methylsulfonyl)amino]-DL-erythrohexitol], the “activity (%)” value is 78%.
Under `O=S(=O)(N[C@H]1CCOC[C@@H]1COc1ccc(-c2ncc(Cl)cc2F)cc1)C1CC1` (racemic) [Example 262, N-[(3RS,4SR)-3-{[4-(5-chloro-3-fluoropyridin-2-yl)phenoxy]methyl}tetrahydro-2H-pyran-4-yl]cyclopropanesulfonamide] stands 89%; under `CCS(=O)(=O)N[C@H]1CCC(F)(F)C[C@@H]1COc1ccc(N2CCCC2=O)cc1` [Example 482, N-[(1S,2S)-4,4-difluoro-2-{[4-(2-oxopyrrolidin-1-yl)phenoxy]methyl}cyclohexyl] ethanesulfonamide], 99%; under `O=S(=O)(N[C@H]1CCOC[C@@H]1COc1ccc(-c2ncc(F)cc2F)cc1)C1CC1` (racemic) [Example 362, N-[(3RS,4SR)-3-{[4-(3,5-difluoropyridin-2-yl)phenoxy]methyl}tetrahydro-2H-pyran-4-yl]cyclopropanesulfonamide], 96%.
`Cc1cnc(-c2ccc(OC[C@H]3COCC[C@@H]3NS(C)(=O)=O)cc2)s1` (racemic) [Example 333, N-[(3RS,4SR)-3-{[4-(5-methyl-1,3-thiazol-2-yl)phenoxy]methyl}tetrahydro-2H-pyran-4-yl]methanesulfonamide]: the “activity (%)” value turned out to be 93%.
Take `CCS(=O)(=O)N[C@H]1CCOC[C@@H]1COc1ccc(-c2ccc(F)cn2)c(F)c1` (single isomer, unassigned) [Example 313, N-[(3R,4S)-3-{[3-fluoro-4-(5-fluoropyridin-2-yl)phenoxy]methyl}tetrahydro-2H-pyran-4-yl]ethanesulfonamide or N-[(3S,4R)-3-{[3-fluoro-4-(5-fluoropyridin-2-yl)phenoxy]methyl}tetrahydro-2H-pyran-4-yl]ethanesulfonamide]: the “activity (%)” value is 99%.
The value for `CCS(=O)(=O)N[C@H]1CCC(=O)C[C@@H]1COc1ccc(C(C)C)cc1` (relative stereo) [Example 39, trans-N-[2-{[4-(1-methylethyl)phenoxy]methyl}-4-oxocyclohexyl]ethanesulfonamide] was 81%; that for `CCS(=O)(=O)N[C@@H]1CCCC[C@H]1COc1ccc(CCC#N)cc1` (relative stereo) [Example 50, trans-N-[2-{[4-(2-cyanoethyl)phenoxy]methyl}cyclohexyl] ethanesulfonamide] was 78%.
Take `O=S(=O)(N[C@H]1CCOC[C@@H]1COc1ccc(-n2cc(Cl)cn2)cc1)C1CC1` [Example 277, N-[(3R,4S)-3-{[4-(4-chloro-1H-pyrazol-1-yl)phenoxy]methyl}tetrahydro-2H-pyran-4-yl]cyclopropanesulfonamide]: the “activity (%)” value turned out to be 90%.
